Source: patent US4612185A, “Methods and compositions for enhancing magnetic resonance imaging” (Mallinckrodt, Inc., priority 1984, dated 1986)

How the values were obtained:
[1] = system: liver, heart, kidney, skeletal muscle, spleen, blood and urine samples; test: Fluorine analysis of rabbit tissue, blood and urine samples by MR spectroscopy; format: in vivo; conditions: 4 mmol F/kg intravenous, conclusion of experiment
From the text: (§1) An anesthetized rabbit was placed in a 12 inch bore, 1.9 Tesla MRI magnet. An RF coil ([…], I.D., 4 cm, O.D.) was placed on the surface of the liver or a kidney which were excised surgically. Fluorine spectra were obtained following 4 mmol F/kg intravenous doses of a solution of sodium [2-(trifluoromethyl)benzamido]acetate (20%, w/v, 2.2 M F, of the compound).
At the conclusion of the experiment, the rabbit was killed and liver, heart, kidney, skeletal muscle, spleen, blood and urine samples were analyzed for fluorine by MR spectroscopy.

[2] = system: mice; test: Acute intravenous toxicity in mice, 7-day observation, LD50 by Litchfield and Wilcoxon; format: in vivo, mouse (Swiss ICR CD-1); conditions: for MORTALITIES/NUMBER TREATED / AVERAGE SURVIVOR WEEKLY BODY WEIGHT CHANGE: single intravenous; for MORTALITIES/NUMBER TREATED: 7 days; for AVERAGE SURVIVOR WEEKLY BODY WEIGHT CHANGE: survivors
Description: Sodium [2-(trifluoromethyl) benzamido] acetate was prepared as a 20% w/v solution in sterile water for injection and the pH was adjusted to 7.0 using 0.1 N HCl.
A total of 14 mice (7 male, 24.6-30.0 g; 7 females, 18.6-26.0 g; Swiss ICR CD-1, Charles River) were used. Animals were housed according to standard operating procedures and marked for identification with picric acid.
Groups of 2-3 mice received single intravenous injections of sodium [2-(trifluoromethyl)benzamido]acetate according to the followinq schedule:
Measured single doses were injected into the lateral tail vein at a rate of 1 ml/min. The animals were observed immediately after dosing and during the 7-day observation period for pharmacotoxic reactions. Recording of terminal body weights and general necrospy of the thoracic and abdominal organs was performed after 7 days. An LD50 value was calculated using the method of Litchfield and Wilcoxon (J. Pharmacol. Exp. Ther. 96:99,1949).

[3] = system: liver or kidney; test: In vivo fluorine (19F) MR spectra of liver and kidney in anesthetized rabbit; conditions: 4 mmol F/kg intravenous, 1.9 Tesla
From the text: as §1

Question: For `O=C([O-])CNC(=O)c1ccccc1C(F)(F)F.[Na+]` [sodium [2-(trifluoromethyl)benzamido]acetate], which “fluorine concentrations in kidney, urine and blood” value [1] is on record?
Answer: highest concentrations of fluorine

Question: And the “fluorine in other tissue specimens” value ([1]; specimens other than kidney, urine, blood)?
Answer: minimal fluorine detected

Question: And the “MORTALITIES/NUMBER TREATED” value ([2]; 1000 mg/kg)?
Answer: 0/2

Question: And the “AVERAGE SURVIVOR WEEKLY BODY WEIGHT CHANGE” value ([2]; 1000 mg/kg)?
Answer: 0.1 g

Question: And the “MORTALITIES/NUMBER TREATED” value ([2]; 2000 mg/kg)?
Answer: 0/2

Question: And the “AVERAGE SURVIVOR WEEKLY BODY WEIGHT CHANGE” value ([2]; 2000 mg/kg)?
Answer: 2.2 g

Question: What about the “MORTALITIES/NUMBER TREATED” value ([2]; 4000 mg/kg) of the same molecule?
Answer: 0/2

Question: What about the “AVERAGE SURVIVOR WEEKLY BODY WEIGHT CHANGE” value ([2]; 4000 mg/kg) of the same molecule?
Answer: 1.8 g

Question: And the “MORTALITIES/NUMBER TREATED” value ([2]; 6000 mg/kg)?
Answer: 1/3

Question: What about the “AVERAGE SURVIVOR WEEKLY BODY WEIGHT CHANGE” value ([2]; 6000 mg/kg) of the same molecule?
Answer: 1.0 g

Question: What about the “MORTALITIES/NUMBER TREATED” value ([2]; 7000 mg/kg) of the same molecule?
Answer: 2/3

Question: What about the “AVERAGE SURVIVOR WEEKLY BODY WEIGHT CHANGE” value ([2]; 7000 mg/kg) of the same molecule?
Answer: 2.7 g

Question: And the “MORTALITIES/NUMBER TREATED” value ([2]; 8000 mg/kg)?
Answer: 2/2

Question: What about the reactions preceding death ([2]; intravenous, all deaths) of the same molecule?
Answer: mild convulsions

Question: And the “time of deaths after treatment” value ([2]; intravenous, all deaths)?
Answer: ≤ 10 min

Question: And the “time after treatment within which all survivors appeared normal” value ([2]; intravenous, all survivors)?
Answer: ≤ 5 h

Question: And the “toxic reactions (hyperactivity)” value ([2]; intravenous, doses=2000 mg/kg (so in the source))?
Answer: mild hyperactivity

Question: And the “toxic reactions (hypoactivity)” value ([2]; intravenous, doses=4000 mg/kg (so in the source))?
Answer: dose-related hypoactivity

Question: What about the “body weight of one survivor, week after treatment” value ([2]; intravenous, one survivor dosed with 1000 mg) of the same molecule?
Answer: body weight loss

Question: What about the “body weight of all other survivors” value ([2]; intravenous, one week) of the same molecule?
Answer: weight gains

Question: And the “estimated mouse intravenous LD50” value ([2]; mouse, intravenous, compound dose)?
Answer: 6500 mg/kg

Question: What about the intravenous toxicity profile ([2]; summary statement of toxicity studies) of the same molecule?
Answer: extremely good intravenous toxicity profile

Question: What about the necropsy findings ([2]; thoracic and abdominal organs, following one week observation) of the same molecule?
Answer: No abnormalities were observed

Question: And the “fluorine spectra in liver and kidney” value ([3]; both liver and kidney)?
Answer: only a single peak which was the same as the spectrum from a solution of sodium [2-(trifluoromethyl)benzamido]acetate

Question: And the “fluorine signal intensity in kidney” value ([3]; kidney)?
Answer: peaked very rapidly in the kidney and remained elevated for several minutes

Question: And the “fluorine signal intensity in liver” value ([3]; liver versus kidney)?
Answer: less than that for the kidney and took a longer time to peak
